Measurements taken from patent US20250099405A1, “COMPOSITIONS, METHODS, AND DEVELOPMENT OF ARID4B INHIBITORS” (University of Kentucky Research Foundation, priority 2022, published 2025).

Experiments:
[1] = Tolerability of ARD150 in mice; assay type: in vivo; settings: 125 mg/kg
Experimental: (§1) Representative HE images of liver and spleen from mice treated with vehicle or ARD150. Images from vehicle and the highest doses of ARD150 (125 mg/kg) were shown (B). […] Three biological replicates for each time point.
The rational development of a small molecule inhibitor (SMI) of a given protein-protein pathway involves a multidisciplinary approach: computational studies, chemical synthesis, characterization of compounds, and biological characterization. ARID4B lacks a defined crystal structure which requires a heavier emphasis on in silico studies to develop SMIs for this pathway. […] Initial biological characterization through cell-based assays and in vitro/in vivo studies have shown that ARD150 targets ARID4B and is tolerable in mice at extremely high concentrations (125 mg/kg). […] Thus, even though ARD150 is a first-in-class inhibitor, further optimization is necessary to improve its characteristics as a theoretical treatment option for endocrine-resistant breast cancer.

[2] = molecular target: T1, HA-ARID4BAC (Homo sapiens, UniProt Q4LE39, DEL571-624); experiment: CETSA in HEK-293T cells expressing the chromodomain deletion mutant; assay type: cell-based; settings: 10 μM, 2 h
T1 construct: transfected with vector, full-length ARID4B or ARID4B deletion mutants; expressed in transfected cells; host or cells: HEK-293T
T1 sequence (Q4LE39 with tags, fused parts or gaps DEL571-624): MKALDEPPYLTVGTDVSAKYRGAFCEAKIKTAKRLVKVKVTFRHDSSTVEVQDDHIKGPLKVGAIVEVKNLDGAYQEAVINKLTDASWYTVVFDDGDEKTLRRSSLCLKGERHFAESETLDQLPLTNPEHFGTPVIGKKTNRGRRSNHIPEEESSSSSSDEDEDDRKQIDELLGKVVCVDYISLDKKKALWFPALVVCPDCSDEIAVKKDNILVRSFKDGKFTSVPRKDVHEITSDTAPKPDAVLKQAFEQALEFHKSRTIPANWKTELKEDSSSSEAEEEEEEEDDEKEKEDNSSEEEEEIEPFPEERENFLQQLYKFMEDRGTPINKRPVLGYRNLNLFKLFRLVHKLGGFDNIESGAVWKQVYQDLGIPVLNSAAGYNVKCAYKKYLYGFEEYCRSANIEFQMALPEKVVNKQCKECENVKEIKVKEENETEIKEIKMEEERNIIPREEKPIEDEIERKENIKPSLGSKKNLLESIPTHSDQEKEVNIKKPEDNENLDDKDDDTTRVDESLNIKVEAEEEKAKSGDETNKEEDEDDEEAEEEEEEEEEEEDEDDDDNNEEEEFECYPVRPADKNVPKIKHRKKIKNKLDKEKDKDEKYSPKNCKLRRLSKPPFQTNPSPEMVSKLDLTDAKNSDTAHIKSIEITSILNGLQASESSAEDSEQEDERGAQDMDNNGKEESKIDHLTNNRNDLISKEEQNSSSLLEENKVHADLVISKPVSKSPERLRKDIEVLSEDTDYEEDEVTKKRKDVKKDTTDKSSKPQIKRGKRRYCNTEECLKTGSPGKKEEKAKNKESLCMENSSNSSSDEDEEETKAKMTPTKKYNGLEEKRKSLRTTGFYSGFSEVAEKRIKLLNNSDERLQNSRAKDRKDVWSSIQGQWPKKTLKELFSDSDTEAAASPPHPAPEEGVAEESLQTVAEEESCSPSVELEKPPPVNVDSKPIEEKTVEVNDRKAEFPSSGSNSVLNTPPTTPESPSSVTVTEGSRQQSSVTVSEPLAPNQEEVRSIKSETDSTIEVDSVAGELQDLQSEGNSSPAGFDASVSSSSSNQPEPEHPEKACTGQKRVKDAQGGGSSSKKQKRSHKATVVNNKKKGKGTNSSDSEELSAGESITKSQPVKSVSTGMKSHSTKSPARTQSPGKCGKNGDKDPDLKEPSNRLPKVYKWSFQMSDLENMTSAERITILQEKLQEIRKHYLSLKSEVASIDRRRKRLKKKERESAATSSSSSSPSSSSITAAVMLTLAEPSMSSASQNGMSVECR
Experimental: (B-C) show cells expressing HA-ARID4B (C) or HA-ARID4BIC (D) treated or not with ARD150 (10 μM) for 2 h were used for CESTA. […] (D-E) show cells expressing HA-ARID4B (D) or Flag-ARID4A (E) treated or not with RWR-18 (10 μM) for 2 h were used for CESTA. […] Data are means±SEM from three experiments. *P<0.05, **P<0.01, ns, not significant.
Using CETSA (cellular thermal shift assay) to examine whether ARD150 or RWR-18 binds to ARID4B, MCF7 cells treated or not with ARD150 or RWR-18 for 2 h were collected, followed by heating at 46, 49, 52, 55, and 58° C. to denature and precipitate ARID4B protein, cell lysis, removal of cell debris and aggregates by centrifugation, and finally detection of remaining thermostable ARID4B protein by western blot. The ARID4B aggregation temperatures without ARD150 were determined to be 49-52° C., but shifted to 52-55° C. after treatment with ARD150 and even more so with RWR-18 (FIG. 15A-D). To determine whether ARD150 and RWR-18 targets the chromodomain of ARID4B, CESTA was performed using chromodomain deletion mutant (ARID4BAC). HEK-293T cells expressing HA-ARID4B or HA-ARID4BAC were treated or not with ARD150 (10 μM) for 2 h and processed for CESTA.

[3] = Plasma stability, incubation with mouse blood plasma, LC-MS; assay type: in vitro ADME; settings: over the 24 h period, equivalent of 50 mg/kg
Experimental: as §1
The potential toxicity of RWR-18 was tested using 9-week-old Balb/c female mice. The mice were injected (i.p.) with vehicle or 10 mg/kg, 25 mg/kg, and 50 mg/kg of RWR-18 (daily for 7 days, 3 mice/group). The body weight was measured daily for 21 days. The liver, spleen, heart, lung, and kidney were collected for macroscopic and histological examination. […] Preliminary plasma kinetic studies were performed. Following the incubation of the equivalent of 50 mg/kg of RWR-18 with blood plasma from mice at 10 min, 30 min, 1 h, 4 h, 16 h, and 24 h, we measured the plasma levels of RWR-18 by LC-MS.

[4] = tested on: ERα signaling; experiment: qRT-PCR of ERα target genes after E2 treatment; assay type: cell-based; settings: pre-treatment 5 and 10 μM
Experimental: The mRNA levels of GREB1, PGR, ARID4B, and MYD88 from MCF7 (A) and MCF7 Y537S cells (B) pre-treated with RWR-18 (0, 5 and 10 μM, 1 h) followed by +E2 treatment (10 nM, 4 h) were analyzed by qRT-PCR. Data are means±SEM from three biological replicate. ***, P<0.001. ns, not significant.
Consistent with knockout of ARID4B inhibited E2-induced and constitutive expression of ERα target genes, pre-treatment with RWR-18 (5 and 10 μM) abolished the induction of PGR and GREB1 genes by E2 in MCF7 and ZR75-1 cells (FIG. 18).

| Compound | tolerability in mice [1] | shift of aggregation temperatures of HA-ARID4BAC (chromodomain deletion mutant) [2] | reduction in peak area in mouse blood plasma [3] [%] | levels of ARID4B or MYD88 mRNA [4] | induction of PGR and GREB1 genes by E2 ([4]; MCF7 and ZR75-1 cells) |
| --- | --- | --- | --- | --- | --- |
| COc1ccc(C(=O)NCCCN2CCOCC2)cc1OC [ARD150] | tolerable | no shift was observed |  |  |  |
| O=C(COc1ccc(OCc2ccccc2)cc1)NCCCN1CCOCC1 [RWR-18] |  |  | ~20 | not affected | abolished |
